Laboratory results from US6894153B1, “Gene Any-RF; dormancy regulatory substance, process for producing the same and cell regulator for vital cells” (priority 1999, dated 2005).
No end group written: not given here.

Columns and labels:
[1] = Acute toxicity test in mice; type: in vivo
Description: (§1) The foregoing peptide of the present invention as the physiologically active substance is almost free of an) side effect in the living body as compared with the conventional Cecropin and Pierisin and any acute toxicity is not observed at all. More specifically, the peptide of the present invention was administered to rats and mice through two routes, i.e., oral and percutaneous routes, in an amount of 0.5 g per unit body weight (1 kg) and the acute toxicity test was carried out according to the predetermined method. […] Moreover, the testis of the genital organ was removed from each animal after the acute toxicity test and the tissue was examined with a microscope. […] In addition, the peptide of the present invention is a low molecular weight penta-peptide and therefore, it never causes any antigen-antibody reaction and it is safe.

[2] = Acute toxicity test in rats; type: in vivo
Description: as §1

[3] = test system: rat hepatoma cells (dRLh84); assay: Morphological observation of cultured cancer cells (inverted microscope); type: cell-based; details: 200 μg/ml
Description: (§2) Rat hepatoma cells (dRLh 84) were used and these cells were cultivated in Dulbecco's modified Eagle medium (DMEM) containing 4 mM glutamine, 50U/ml penicillin, 100 μg/ml kanamycin, and supplemented with 10% neonatal calf serum. In respect of the foregoing cells, the cultivation thereof was carried out at 37° C. in a wet atmosphere including 5% CO2.
The inhibitory effect of the penta-peptide on the growth of cancer cells was examined as follows. As the cancer cells, there were used rat hepatoma cells (dRLh84), which were relatively easily available and whose cultivation was easy. To make clear the relation between the physiologically active substance (RF—NH2) of the present invention and the growth of cancer cells, cancer cells were cultured in a cell culture medium supplemented with PBS(−) for a control group and culture mediums supplemented with 200 μg/ml each of the peptide whose C-terminal was amidated, i.e., RF—NH2 and the peptide whose C-terminal was in a free acid form, i.e., RF—COOH, respectively, for the experimental groups. The number of cultured cells was adjusted to 3 to 5×10^5, and the cells were cultured with or without a predetermined amount of each peptide in the presence of 5% CO2 at 37° C. […]

[4] = test system: pre-larvae of Antheraea yamamai; assay: Bioassay of dormancy-control in pre-larvae destined to awake by KK-42 treatment
Description: In general, the activity of a repressive factor is determined using a non-dormancy type insect and evaluated on the basis of the rate of dormancy induction, but there is not any non-dormancy type strain in Antheraea yamamai.
Subsequent to the completion of the treatment for awakening from the dormancy, 0.05 μl each of distilled water was injected to each larva after 24 hours from the completion of the treatment and this group of larvae was used as the control group. In the case of the isolated and purified product, a solution whose concentration was adjusted in such a manner that 100 pmol of the product was present in 0.05 μl of distilled water was injected into each larva, while in the case of the synthetic peptides in the amidated and free acid forms, 100 pmol/0.05 μl each of the peptide was injected into each larva. In any case, the larvae were inspected for the number of larvae falling into dormancy, the number of larvae awakening from the dormancy, the number of died larvae and the average days required till awakening from the dormancy (diapause termination) to thus evaluate the rate of larvae awakening from the dormancy.
After 24 hours from the treatment with the KK-42 solution, 0.05 μl of distilled water was injected to the pre-larvae, followed by a second distilled water injection thereto after additional 24 hours and a third distilled water injection after additional 24 hours from the second distilled water injection (in the following Table 2, they are referred to as control 1, 2 and 3 respectively). And the rate of pre-larvae awaken from the dormancy (the rate of diapause termination) was evaluated in each case.

[5] = test system: rat hepatoma cells (dRLh84); assay: Flow cytometric analysis of cell cycle (propidium iodide DNA content); type: cell-based; details: 200 μg/ml; 48 hours
Description: The cells treated with each peptide was fixed at 4° C. for 4 hours using 70% ethanol. The fixed cells were washed with PBS(−), then treated with 2 mg/ml of RNaseA at 37° C. for 30 minutes to thus […] the RNA. Thereafter, the cells were stained with propidium iodide (25 μg/ml) for not less than 30 minutes and filtered through a nylon mesh. Then the intensity of fluorescence (DNA content per cell) observed for 10,000 cells was analyzed using a flow cytometer ([…] available from Becton Dickinson Company).
The fact that the physiologically active substance of the present invention can inhibit the cell growth ability of the rat hepatoma is substantiated experimentally by the results obtained in Examples 6, 7 and 8 (FIGS. 9, 10 and 11). Thus, we tried to elucidate the mechanism of the inhibition. The peptide (DILRG—NH2)(200 μg/ml) was added to the culture medium under the same conditions used in Example 6 and the cells were cultured, followed by fixing the cells after cultivation of 48 hours with ethanol and then staining the cells with propidium iodide. In addition, the same procedures used above were repeated using a culture medium supplemented with PBS(−) as a control group. The DNA content in the cells was analyzed using a flow cytometer. The flow cytometric analysis employed for this purpose comprises the step of staining cells with propidium iodide, which is a fluorescent dye capable of being linked with DNA to thus determine the DNA content of the cell and this method permits the analysis of the cell cycle control. More specifically, the biological cell multiplies by cell division while undergoing the following cycle change: G0/G 1. S (DNA replication stage) and M stage (cell division stage) in this order. FIGS. 12(A) and 12(B) are graphs each showing the results obtained by determining the DNA content in each cancer cell using a flow cytometer and then analyzing the results. It can be predicted from the data shown in FIGS. 12(A) and 12(B), i.e., the cell cycle change observed for the control group (PBS(−) was used, FIG. 12(A)) and that observed for the experimental group (RF—NH2 was used, FIG. 12(B)), that the pattern of the rat hepatoma cell cycle is differently affected by the presence and absence of the peptide.
Then the patterns observed in FIGS. 12(A) and 12(B) were examined in detail. In the G0/G1 stage, the DNA content is 2n, while that observed in the M stage is two times that observed for the G0/G1 stage or 4n. In the analysis of data shown in FIGS. 12(A) and 12(B), the DNA contents of 2n and 4n correspond to peaks or wide peaks at 360 and 700, respectively. If it is assumed that the analyzed pattern of the cell cycle change shown in FIGS. 12(A) and 12(B) comprises a linear coupling of peaks specific to G0/G1, S, M stages, the rate of cells in each stage can be obtained by dividing the pattern into these individual components.

[6] = test system: rat hepatoma cells (dRLh84); assay: Assay for cancer cell growth-control (viable cell count, trypan blue); type: cell-based
Description: as §2
The used culture medium was removed from a (100 mm dish (generally schale) in which cells were cultured and the dish was once washed with PBS(−) (prepared by removing Ca and Mg ions from phosphate buffered saline). To the dish, there was gently added 1.5 ml of a 10% trypsin solution so that the solution uniformly spreaded throughout the dish, 1 ml of the solution was removed, the dish was maintained at 37° C. for 5 minutes and it was confirmed with a microscope that the cells were pealed off from the bottom of the dish. Then 9.5 ml of a fresh DEME medium was added to the dish and the cells were separated into individual cells by pipetting to thus suspend the cells in the medium. Dishes of Φ100 mm were inoculated with this suspension in a dilution of 1/20 (total amount: 10 ml), followed by introduction thereof into an incubator and cultivation for 24 hours. Each peptide was added to these dishes in a predetermined concentration, followed by cultivation at 37° C., determination of the number of cells using a blood counting plate after 24 and 48 hours from the initiation of the cultivation to thus inspect the peptides for their cell growth-control functions.
Rat hepatoma cells (dRLh84, 3×10^5 cells) were cultured in a culture medium, to which the peptide (DILRG—NH2, SEQ ID NO:5, the peptide of SEQ ID NO:1 having the C-terminal amidated or DILRG—COOH, SEQ ID NO:1) was added in a predetermined amount (0, 50, 100, 150, 200 μg/ml) in the presence of 5% CO2 at 37° C. for 40 hours. Thereafter, the culture medium was treated with trypan blue to determine the […] cell count.
Thus, the cultivation time was extended to investigate the relation between the proliferation ability of cancer cells and the cultivation time using the physiologically active substance of the present invention. The method for cultivation used herein was identical to that used in Example 7. The cultivation time was extended up to 72 hours. The cultivation of 3×10^5 cells was carried out using a culture medium supplemented with PBS(−) for a control group and a cell culture medium for an experimental group, to which 200 μg/ml of the peptide (DILRG—NH2) was added, in the presence of 5% CO2 at 37° C. for 24, 48 and 72 hours, respectively. Thereafter, the culture medium was treated with trypan blue to determine the viable cell count.
The fact that the physiologically active substance derived from insects can results obtained in Examples 6, 7 and 8. […] Thus, we investigated which part of the 5 amino acid sequence of this substance is indispensable to the cell growth-control activity from the structural standpoint. Cells were cultured by the same method used in Example 6. More specifically, in the control group, there were used a culture medium supplemented with PBS(−) and FMRF—NH2(SEQ ID NO:4), which is widely distributed from echinoderms to insects and mammals, which comprises 4 amino acid residues and whose C-terminal is amidated. In an experimental group, there was used a culture medium supplemented with the complete synthetic peptide (DILRG—NH2) or an incomplete synthetic peptide (ILRG—NH2) free of the aspartic acid residue at the N-terminal in a concentration of 200 μg/2.6×10^5 cells. The control group and the experimental group were cultured at 37° C. for 48 hours in the presence of 5% CO2. Thereafter the cells were stained with trypan blue to thus determine the number of cells.

[7] = test system: cultured cells of lymphoma and leukemia; details: Moore et al. 1994; cited from earlier work
[8] = after the acute toxicity test, 0.5 g/kg oral and percutaneous
[9] = oral and percutaneous routes, 0.5 g per unit body weight (1 kg)
[10] = 100 pmol/0.05 μl injected once 24 hours after KK-42 treatment
[11] = 100 pmol/0.05 μl injected once 24 hours after KK-42 treatment, N 10 × 3
[12] = Table 2, 100 pmol/0.05 μl × 1, N 10 × 3
[13] = Table 2, 100 pmol/0.05 μl × 2 (24 hours apart), N 10 × 3
[14] = Table 2, 100 pmol/0.05 μl × 3 (24 hours apart), N 10 × 3
[15] = Example 10, 200 μg/2.6×10^5 cells, 48 hours

**Q.** Which “testis tissue examined with a microscope” value [1, 8] does the source give for H-DILRG-NH2 [Asp-Ile-Leu-Arg-Gly-NH2] here?
**A.** any abnormality was not observed at all

**Q.** And the “acute toxicity such as convulsion and vomiting” value [1, 9]?
**A.** not observed any acute toxicity

**Q.** And the “testis tissue examined with a microscope” value [2, 8]?
**A.** any abnormality was not observed at all

**Q.** What about the “acute toxicity such as convulsion and vomiting” value [2, 9] of the same substance?
**A.** not observed any acute toxicity

**Q.** And the “number of cancer cells compared with the initiation of the cultivation (0 hour)” value ([3]; after 24 and 48 hours)?
**A.** not increased at all

**Q.** What about the “shape of the cells” value ([3]; after 48 hours) of the same substance?
**A.** changed from a spindle-like shape to a circular shape

**Q.** And the “No. of Days (Time (day) required till Awakening)” value [4, 10]?
**A.** 6.72 days

**Q.** And the “Rate (the rate of larvae awakening from dormancy)” value [4, 10]?
**A.** 53.3%

**Q.** What about the “Number of Insects Awa (Awakening from Dormancy)” value [4, 11] of the same substance?
**A.** 16

**Q.** And the “Number of Insects Died” value [4, 11]?
**A.** 0

**Q.** What about the “Number of Insects Dor (Dormancy)” value [4, 11] of the same substance?
**A.** 14

**Q.** What about the “Rate of Diapause Termination” value ([4]; Table 2, 100 pmol/0.05 μl × 1) of the same substance?
**A.** 53.3%

**Q.** And the “Number of Insects Awa (Diapause Termination)” value [4, 12]?
**A.** 16

**Q.** And the “Number of Insects Died” value [4, 12]?
**A.** 0

**Q.** And the “Number of Insects Dor (Dormancy)” value [4, 12]?
**A.** 14

**Q.** And the “Rate of Diapause Termination” value ([4]; Table 2, 100 pmol/0.05 μl × 2 (24 hours apart))?
**A.** 30%

**Q.** What about the “Number of Insects Awa (Diapause Termination)” value [4, 13] of the same substance?
**A.** 9

**Q.** What about the “Number of Insects Died” value [4, 13] of the same substance?
**A.** 0

**Q.** What about the “Number of Insects Dor (Dormancy)” value [4, 13] of the same substance?
**A.** 21

**Q.** And the “Rate of Diapause Termination” value ([4]; Table 2, 100 pmol/0.05 μl × 3 (24 hours apart))?
**A.** 13.3%

**Q.** And the “Number of Insects Awa (Diapause Termination)” value [4, 14]?
**A.** 4

**Q.** What about the “Number of Insects Died” value [4, 14] of the same substance?
**A.** 0

**Q.** What about the “Number of Insects Dor (Dormancy)” value [4, 14] of the same substance?
**A.** 26

**Q.** And the “G0/G1 stage rate higher than that observed for the control group” value [5]?
**A.** not less than 30%

**Q.** What about the “Rate of cells in G0/G1 Stage” value [5] of the same substance?
**A.** 66.07%

**Q.** And the “Rate of cells in G2/M Stage” value [5]?
**A.** 12.10%

**Q.** What about the “Rate of cells in S Stage” value [5] of the same substance?
**A.** 21.84%

**Q.** What about the “S stage rate lower than that observed for the control group” value [5] of the same substance?
**A.** not less than 40%

**Q.** What about the viable cell count ([6]; Example 7, 50 μg/ml, 3×10^5 cells cultured 40 hours) of the same substance?
**A.** markedly reduced

**Q.** What about the viable cell count ([6]; Example 7, 200 μg/ml, 3×10^5 cells cultured 40 hours) of the same substance?
**A.** 7.7×10^5 cells

**Q.** What about the “viable cell count relative to that observed for the control group” value ([6]; Example 7, 200 μg/ml, 40 hours) of the same substance?
**A.** a half

**Q.** What about the viable cell count ([6]; Example 8, 200 μg/ml, from 3×10^5 cells within 72 hours) of the same substance?
**A.** 8×10^5 cells

**Q.** What about the “factor of increase of the number of cells” value ([6]; Example 8, 200 μg/ml, within 72 hours) of the same substance?
**A.** 2.7

**Q.** What about the viable cell count [6, 15] of the same substance?
**A.** ~7.7×10^5 cells

**Q.** And the “cancer cell growth after transfer to fresh culture medium without peptide” value ([6]; after cultivation for 48 hours with 200 μg/ml peptide)?
**A.** rapidly began to proliferate like the control group

**Q.** For Cecropin, which “anti-tumor activity to cultured cells” value [7] is on record?
**A.** anti-tumor activity

**Q.** Which “larvae awakened from the dormancy” value ([4]; 0.1 μg/0.5 μl solution in acetone applied on the ventral portion of each larva) does the source give for “1-benzyl-5-[(E)-2,6-dimethyl-1,5-heptadienyl] [KK-42, reference compound]” here?
**A.** 100%

**Q.** For DILRG-OH [Asp-Ile-Leu-Arg-Gly-COOH], which “Number of Insects Died” value [4, 11] is on record?
**A.** 0

**Q.** Which results are given for Ile-Leu-Arg-Gly (ILRG-NH2) [ILRG—NH2]?
**A.** growth-inhibitory effect [6, 15]: sufficient growth-inhibitory effect; viable cell count [6, 15]: 8.4×10^5 cells
